Experimental data published in US20250188169A1, “METHOD FOR TREATING CLONAL HEM[…] DISORDERS” (THE CHILDREN'S MEDICAL CENTER CORPORATION, priority 2022, published 2025).
Entries after “also recorded” stand apart in the source; their conditions may differ.

How the values were obtained:
asxl1-mutant clones = test: asxl1-mutant clonal dynamics in peripheral blood of mosaic asxl1-mutant zebrafish (VAF by sequencing); format: in vivo
Experimental: (§1) Zebrafish were generated with mosaic mutations in asxl1 using the TWISTR method (Avagyan et a1 Science 2021, PMID 34735227). Briefly, they were injected with guide-RNAs targeting asxl1 gene with Cas9 mRNA into 1-cell embryos of zebrafish, and grown to adulthood. At 3 months retroortibital bleeding was performed on the adult zebrafish and measure the size of the mutant clones in the peripheral blood by sequencing the genomic DNA at the targeting locus of asxl1. Zebrafish with at least 1 mutant allele of 5% of greater allele size were chosen for the cohorts, randomly assigned to be treated with either DMSO or NR4A1 inhibitor (DIM-C). The dose of DIM-C was determined in a previously conducted pilot experiment. Zebrafish with mosaic mutations in asxl1 are treated with either DMSO or an NR4A1 inhibitor (DIM-C) and analyzed over a three-month period. Peripheral blood was collected every month to determine the size of the mutant clones over time. […] RO=retro-orbital bleed, RO1=first RO, pre-treatment, RO2 through RO4=monthly RO bleeds following treatment.
Clonal hematopoiesis. Zebrafish were generated with mosaic mutations in asxl1 using the TWISTR method (Avagyan et a1 Science 2021, PMID 34735227). Briefly, they were injected with guide-RNAs targeting asxl1 gene with Cas9 mRNA into 1-cell embryos of zebrafish, and grown to adulthood. At 3 months retroortibital bleeding was performed on the adult zebrafish and the size of the mutant clones in the peripheral blood was measured by sequencing the genomic DNA at the targeting locus of asxl1. Zebrafish with at least 1 mutant allele of 5% of greater allele size were chosen for the cohorts, randomly assigned to be treated with either DMSO or NR4A1 inhibitor (DIM-C). Zebrafish with mosaic mutations in asxl1 were treated with either DMSO or an NR4A1 inhibitor (DIM-C) and analyzed over a three-month period. Peripheral blood was collected every month to determine the size of the mutant clones over time.
It was previously shown by early genetic targeting nr4a1 during development prevented clonal growth of mutant cells. Next, the hypothesis that pharmacologic inhibition of nr4a1 would halt or reduce mutant clonal growth over time was tested (FIG. 1). To test this hypothesis, a cohort of asxl1 mutant zebrafish were generated and screened for the presence of asxl1 mutant clone at at least 5% VAF in peripheral blood. The positively screened mutant fish were then treated either with DMSO or minimally toxic dose of DIM-c (Tocris compound) at 9.5 uM concentration overnight, between 14-16 hours long, 5 days of the week for 6 months. Peripheral blood from both groups was collected by retroorbital bleeding every month for measurement of the mutant clones in the blood by next generation sequencing (FIG. 2). N=are the numbers of fish at the initiation of treatment. A more detailed experimental schema with exact dates in order to calculate exact ages of the fish or post treatment timepoints is shown in FIG. 10.

zebrafish = test: Tolerability and survival of treated asxl1-mutant zebrafish; format: in vivo; conditions: over the three-month treatment period
Experimental: as §1
It was previously shown by early genetic targeting nr4a1 during development prevented clonal growth of mutant cells. […]
FIG. 11 examines the survival curve of the fish in two cohorts. […] Additionally, marrow cellular composition was analyzed at 8 months post treatment by flow cytometry.

[1] = tested on: marrow myelomonocytes, lymphocytes and progenitor/precursors; test: Marrow cellular composition by flow cytometry; format: in vivo, zebrafish; conditions: 8 months post treatment
Experimental: FIG. 11 examines the survival curve of the fish in two cohorts. An event was finding the fish dead or moribund after overnight treatment; no fish died during the day or off treatment days or as a consequence of retroorbital bleeding. No statistical difference was found with p values >0.05 by two different tests between the groups. 17 DMSO and 13 DIMC fish were left for final analysis. Additionally, marrow cellular composition was analyzed at 8 months post treatment by flow cytometry.

## Oc1ccc(C(c2c[nH]c3ccccc23)c2c[nH]c3ccccc23)cc1 [DIM-C, 1,1-bis(3′-indolyl)-1-(p-hydroxyphenyl)methane]
asxl1-mutant clones; DIM-C treated zebrafish, three-month period, null hypothesis: no change
  change in asxl1 frameshift indel containing clone size compared to 0 (Wilcoxon rank test): no significant change
asxl1-mutant clones; DIM-C treatment, three-month period, peripheral blood
  change of asxl1-mutant clones with non-frameshift indels over time: similarly unchanged over time; also recorded: did not change significantly over time
asxl1-mutant clones; DIM-C vs DMSO, three-month period, monthly retro-orbital bleeds, peripheral blood
  expansion of asxl1-mutant clones with frameshift indels (VAF over time): less pronounced and plateaus by 3 months; also recorded: less expansion of asxl1-mutant clones
asxl1-mutant clones; DIM-C, all zebrafish (n=12), three-month period
  asxl1-mutant clonal expansion, clones with frameshift and non-frameshift indels, all zebrafish: significantly abated asxl1-mutant clonal expansion
asxl1-mutant clones; DIMC treatment arm, compared to 0 (no change over time), one sample t and Wilcoxon test
  change in size of the largest clone over treatment: had not changed significantly
asxl1-mutant clones; three-month period, clones with VAF of 5% or greater in at least 1 time point
  percent change of clone size (VAF at RO4 compared to VAF at RO1), frameshift-indel clones, compared to DMSO: significantly less expansion
zebrafish
  physical abnormalities in treated zebrafish: No physical abnormalities were observed
[1]
  marrow cellular composition, difference between treatment groups: no difference between the treatment groups
